From article PMC3199943, “Screening the MayBridge Rule of 3 Fragment Library for Compounds That Interact with the Trypanosoma brucei myo-Inositol-3-Phosphate Synthase and/or Show Trypanocidal Activity” (Molecular Biology International, 2011)
Like-named read-outs stand apart in the source and are kept apart here.

What was measured:
TbINO1 = target: T1, TbINO1 (Trypanosoma brucei brucei, UniProt Q5QQ46); test: biochemical; type: binding
T1 sequence (Q5QQ46 1-528): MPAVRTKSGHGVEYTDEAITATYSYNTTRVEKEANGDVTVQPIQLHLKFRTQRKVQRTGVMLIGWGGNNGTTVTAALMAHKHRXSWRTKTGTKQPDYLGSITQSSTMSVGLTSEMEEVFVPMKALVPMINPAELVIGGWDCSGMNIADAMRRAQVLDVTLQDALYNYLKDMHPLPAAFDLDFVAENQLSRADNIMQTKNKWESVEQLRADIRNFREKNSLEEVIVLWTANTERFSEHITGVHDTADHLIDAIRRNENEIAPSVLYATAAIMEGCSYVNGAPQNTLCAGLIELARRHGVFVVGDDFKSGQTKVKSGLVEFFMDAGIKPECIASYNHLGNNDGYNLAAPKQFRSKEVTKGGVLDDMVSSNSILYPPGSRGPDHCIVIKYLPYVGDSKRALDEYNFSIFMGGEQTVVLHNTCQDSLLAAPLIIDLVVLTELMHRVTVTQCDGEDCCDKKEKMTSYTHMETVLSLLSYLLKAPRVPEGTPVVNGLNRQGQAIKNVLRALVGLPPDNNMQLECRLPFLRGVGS

HeLa cells = test: cells; conditions: for viability at 500 µM / CC50: Homo sapiens, HeLa; for viability at 500 µM: 65 h; for HeLa Cells Alamar Blue: Supplementary Table 1, compound 0.5 mM, percentage of controls, mean ± SD (n=3) or SE (n=2); for CC50: read-out: HeLa ED50
Summary of the method: (§1)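 Viability by Alamar Blue (5 h) after ~65 h drug treatment; seeding density 2 × 10^4 cells/well in DMEM supplemented with 10% FCS and 2 mM L-Glutamine.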

A549 cells = test: Cytotoxicity against A549 cells, Alamar Blue; type: cell-based; conditions: Supplementary Table 1, compound 0.5 mM, percentage of controls (n=1); for viability at 500 µM: Homo sapiens, A549, 65 h
Summary of the method: as §1

[1] = read-out: Tb Ino1 Tm Shift [˚C]
[2] = read-out: HeLa Cells Alamar Blue
[3] = Supplementary Table 1, compound 1mM, mean ± SD from Boltzman curve fitting
[4] = read-out: HeLa Cells Alamar Blue (% survival)

Compound: Cc1csc(C(=O)O)c1 [compound 139, 4‐methylthiophene‐2‐carboxylic acid]
- ΔTm at 1000 µM (TbINO1; [1]): 0.08 ± 0.07 °C
- viability at 500 µM (HeLa cells; [2]): 70.9 ± 10.7%
- viability at 500 µM (A549 cells): 121%

Compound: OCc1cccnc1N1CCCC1 [compound 440, [2‐(1‐pyrrolidinyl)‐3‐pyridinyl]methanol]
- ΔTm at 1000 µM (TbINO1; [1]): 0.78 ± 0.08 °C
- viability at 500 µM (HeLa cells; [2]): 74.6 ± 7.5%
- viability at 500 µM (A549 cells): 94%

Compound: NC(=S)N1CCOCC1 [compound 159, morpholine‐4‐carbothioamide]
- ΔTm at 1000 µM (TbINO1; [1]): 0.21 ± 0.05 °C
- viability at 500 µM (HeLa cells; [2]): 93.8 ± 9.3%
- viability at 500 µM (A549 cells): 109%

Compound: O=C(O)c1cccc(-c2ccncc2)c1 [compound 614, 3‐pyrid‐4‐ylbenzoic acid]
- ΔTm at 1000 µM (TbINO1; [1]): 0.46 ± 0.12 °C
- viability at 500 µM (HeLa cells; [2]): 81.2 ± 15.9%
- viability at 500 µM (A549 cells): 66.3%

Compound: COC(=O)c1cccc(C)c1 [compound 185, methyl 3‐methylbenzoate]
- ΔTm at 1000 µM (TbINO1; [1]): 0.14 ± 0.09 °C
- viability at 500 µM (HeLa cells; [2]): 106 ± 10.4%
- viability at 500 µM (A549 cells): 61.3%

Compound: COC(=O)Cc1ccsc1 [compound 238, methyl 2‐(3‐thienyl)acetate]
- ΔTm at 1000 µM (TbINO1; [1]): 0.39 ± 0.07 °C
- viability at 500 µM (HeLa cells; [2]): 111 ± 9.9%
- viability at 500 µM (A549 cells): 64.7%

Compound: CC1(C)Cc2cccc(C(=O)O)c2O1 [compound 564, 2,2‐dimethyl‐2,3‐dihydro‐1‐benzofuran‐7‐carboxylic acid]
- Tb Ino1 Tm Shift [˚C] (TbINO1; [3]): 0.35 ± 0.07 °C
- HeLa Cells Alamar Blue (HeLa cells): 91.1 ± 19 percentage of controls
- A549 Cells Alamar Blue (A549 cells): 101.2 percentage of controls

Compound: Cn1nc(C(C)(C)C)cc1N [compound 216, 3‐(tert‐butyl)‐1‐methyl‐1H‐pyrazol‐5‐amine]
- Tb Ino1 Tm Shift [˚C] (TbINO1; [3]): 0.15 ± 0.07 °C
- HeLa Cells Alamar Blue (HeLa cells): 80.1 ± 11.3 percentage of controls
- A549 Cells Alamar Blue (A549 cells): 56.7 percentage of controls

Compound: CC(=O)Nc1cc(C)ccc1O [compound 303, N1‐(2‐hydroxy‐5‐methylphenyl)acetamide]
- Tb Ino1 Tm Shift [˚C] (TbINO1; [3]): 0.15 ± 0.07 °C
- HeLa Cells Alamar Blue (HeLa cells): 95.3 ± 9.8 percentage of controls
- A549 Cells Alamar Blue (A549 cells): 45 percentage of controls

Compound: OCc1ccccc1Cl [compound 143, (2‐chlorophenyl)methanol]
- ΔTm at 1000 µM (TbINO1; [1]): 0.46 ± 0.05 °C
- viability at 500 µM (HeLa cells; [2]): 93.3 ± 6.6%
- viability at 500 µM (A549 cells): 109%

Compound: N#CCCNCc1ccco1 [compound 189, 3‐[(2‐furylmethyl)amino]propanenitrile]
- ΔTm at 1000 µM (TbINO1; [1]): 0.75 ± 0.08 °C
- viability at 500 µM (HeLa cells; [2]): 92.5 ± 7.2%
- viability at 500 µM (A549 cells): 84.4%

Compound: OCc1cn2ccsc2n1 [compound 221, imidazo[2,1‐b]thiazol‐6‐ylmethanol]
- ΔTm at 1000 µM (TbINO1; [1]): 0.09 ± 0.23 °C
- viability at 500 µM (HeLa cells; [2]): 107 ± 7.6%
- viability at 500 µM (A549 cells): 99.5%

Compound: OCc1ccc(-c2ccco2)s1 [compound 458, [5‐(2‐furyl)thien‐2‐yl]methanol]
- ΔTm at 1000 µM (TbINO1; [1]): 0.6 ± 0.02 °C
- viability at 500 µM (HeLa cells; [2]): 94 ± 12.5%
- viability at 500 µM (A549 cells): 73.6%

Compound: N#Cc1scc2c1OCCO2 [compound 327, 2,3‐dihydrothieno[3,4‐b][1,4]dioxine‐5‐carbonitrile]
- Tb Ino1 Tm Shift [˚C] (TbINO1; [3]): 0.12 ± 0.06 °C
- HeLa Cells Alamar Blue (HeLa cells): 115.5 ± 14.4 percentage of controls
- A549 Cells Alamar Blue (A549 cells): 121.1 percentage of controls

Compound: O=C(O)c1cccc(-n2cccc2)c1 [compound 511, 3‐(1H‐pyrrol‐1‐yl)benzoic acid]
- ΔTm at 1000 µM (TbINO1; [1]): 0.6 ± 0.08 °C
- viability at 500 µM (HeLa cells; [2]): 102 ± 12.3%
- viability at 500 µM (A549 cells): 73%

Compound: O=C(O)c1cncc(-c2ccccc2)c1 [compound 615, 5‐phenylnicotinic acid]
- ΔTm at 1000 µM (TbINO1; [1]): 1.28 ± 0.09 °C
- viability at 500 µM (HeLa cells; [2]): 80.4 ± 11.7%
- viability at 500 µM (A549 cells): 75.6%

Compound: COC(=O)c1sccc1O [compound 247, methyl 3‐hydroxythiophene‐2‐carboxylate]
- Tb Ino1 Tm Shift [˚C] (TbINO1; [3]): 0.2 ± 0.07 °C
- HeLa Cells Alamar Blue (HeLa cells): 95.4 ± 6.1 percentage of controls
- A549 Cells Alamar Blue (A549 cells): 108.7 percentage of controls

Compound: NC(=S)c1ccno1 [compound 86, isoxazole‐5‐carbothioamide]
- ΔTm at 1000 µM (TbINO1; [1]): 0.94 ± 0.08 °C
- viability at 500 µM (HeLa cells; [2]): 102 ± 3.4%
- viability at 500 µM (A549 cells): 105%

Compound: O=C(O)c1ccccc1-c1ccco1 [compound 520, 2-(2-furyl)benzoic acid]
- ΔTm at 1000 µM (TbINO1; read-out: TbIno1 Tm shift [°C]): 4.29 ± 0.07 °C
- viability at 500 µM (HeLa cells; [2]): 73 ± 11.5%
- viability at 500 µM (HeLa cells; [4]): 73 ± 11.5%
- CC50 (HeLa cells): > 20000 µM
- viability at 500 µM (A549 cells): 124%

Compound: Nc1ccc2c(c1)OCO2 [compound 121, 1,3‐benzodioxol‐5‐amine]
- ΔTm at 1000 µM (TbINO1; [1]): 0.72 ± 0.07 °C
- viability at 500 µM (HeLa cells; [2]): 76.7 ± 16%
- viability at 500 µM (A549 cells): 110%

Compound: CC(=O)c1sc(C)nc1C [compound 226, 1‐(2,4‐dimethyl‐1,3‐thiazol‐5‐yl)ethan‐1‐one]
- Tb Ino1 Tm Shift [˚C] (TbINO1; [3]): 0.37 ± 0.1 °C
- HeLa Cells Alamar Blue (HeLa cells): 85.8 ± 10.4 percentage of controls
- A549 Cells Alamar Blue (A549 cells): 62 percentage of controls

Compound: Cc1nc(-c2ccc(N)cc2)cs1 [compound 547, 4‐(2‐methyl‐1,3‐thiazol‐4‐yl)phenylamine]
- ΔTm at 1000 µM (TbINO1; [1]): 0.12 ± 0.07 °C
- viability at 500 µM (HeLa cells; [2]): 74.3 ± 11%
- viability at 500 µM (A549 cells): 63.2%

Compound: CN1C2CCC1CC(=NO)C2.Cl [compound 552, 8‐methyl‐8‐azabicyclo[3.2.1]octan‐3‐one oxime hydrochloride]
- Tb Ino1 Tm Shift [˚C] (TbINO1; [3]): 0 ± 0.09 °C
- HeLa Cells Alamar Blue (HeLa cells): 103.5 ± 9.7 percentage of controls
- A549 Cells Alamar Blue (A549 cells): 105.3 percentage of controls

Compound: NCCc1cccs1 [compound 81, 2‐(2‐thienyl)ethylamine]
- ΔTm at 1000 µM (TbINO1; Supplementary Table 1, compound 1mM, mean ± SD from Boltzman curve fitting, read-out: Tb Ino1 Tm Shift [˚C]): 0.09 ± 0.07 °C
- viability at 500 µM (HeLa cells; [2]): 117 ± 8.9%
- viability at 500 µM (A549 cells): 119%

Compound: NC(=S)c1ccccc1 [compound 123, benzene‐1‐carbothioamide]
- ΔTm at 1000 µM (TbINO1; [1]): 0.42 ± 0.06 °C
- viability at 500 µM (HeLa cells; [2]): 89 ± 10.9%
- viability at 500 µM (A549 cells): 87.9%

Compound: OCc1ccc2occc2c1 [compound 168, 1‐benzofuran‐5‐ylmethanol]
- ΔTm at 1000 µM (TbINO1; [1]): 0.39 ± 0.08 °C
- viability at 500 µM (HeLa cells; [2]): 120 ± 11.4%
- viability at 500 µM (A549 cells): 75.1%

Compound: Nc1cccc(Cn2ccnc2)c1 [compound 377, 3‐(1H‐imidazol‐1‐ylmethyl)aniline]
- ΔTm at 1000 µM (TbINO1; [1]): 0.19 ± 0.07 °C
- viability at 500 µM (HeLa cells; [2]): 103 ± 12.6%
- viability at 500 µM (A549 cells): 62.4%

Compound: OCc1ccc(OC(F)(F)F)cc1 [compound 563, [4‐(trifluoromethoxy)phenyl]methanol]
- ΔTm at 1000 µM (TbINO1; [1]): 0.01 ± 0.07 °C
- viability at 500 µM (HeLa cells; [2]): 94.5 ± 8.3%
- viability at 500 µM (A549 cells): 92.9%

Compound: O=C(O)c1ccc(-c2ccsc2)cc1 [compound 648, 4‐(3‐thienyl)benzoic acid]
- ΔTm at 1000 µM (TbINO1; [1]): 0.25 ± 0.08 °C
- viability at 500 µM (HeLa cells; [2]): 105 ± 8.2%
- viability at 500 µM (A549 cells): 149%

Compound: Nc1cccc(-c2cncnc2)c1 [compound 353, 3‐pyrimidin‐5‐ylaniline]
- ΔTm at 1000 µM (TbINO1; [1]): 0.44 ± 0.06 °C
- viability at 500 µM (HeLa cells; [2]): 78.7 ± 10%
- viability at 500 µM (A549 cells): 56.4%

Compound: OCc1ccc(-c2cccs2)cc1 [compound 544, (4‐thien‐2‐ylphenyl)methanol]
- ΔTm at 1000 µM (TbINO1; [1]): 0.16 ± 0.08 °C
- viability at 500 µM (HeLa cells; [2]): 74.7 ± 10.2%
- viability at 500 µM (A549 cells): 80%

Compound: COC(=O)c1ccoc1C [compound 132, methyl 2-methyl-3-furoate]
- ΔTm at 1000 µM (TbINO1; read-out: TbIno1 Tm shift [°C]): 1.64 ± 0.09 °C
- viability at 500 µM (HeLa cells; [2]): 71.3 ± 11.3%
- viability at 500 µM (HeLa cells; [4]): 71.3 ± 11.3%
- viability at 500 µM (A549 cells): 100%

Compound: OCc1c[nH]c2ccccc12 [compound 162, 1H-indol-3-ylmethanol]
- ΔTm at 1000 µM (TbINO1; read-out: TbIno1 Tm shift [°C]): 2.31 ± 0.06 °C
- viability at 500 µM (HeLa cells; [2]): 16.3 ± 10.6%
- viability at 500 µM (HeLa cells; [4]): 16.3 ± 10.6%
- CC50 (HeLa cells): 103 ± 6 µM
- viability at 500 µM (A549 cells): 41.6%

Compound: Cc1noc(C)c1C#N [compound 53, 3,5‐dimethyl‐4‐isoxazolecarbonitrile]
- ΔTm at 1000 µM (TbINO1; [1]): 0.52 ± 0.09 °C
- viability at 500 µM (HeLa cells; [2]): 89.3 ± 2.8%
- viability at 500 µM (A549 cells): 84.5%
